Experimental data from patent US20250361233A1, “Compounds For Activating Serotonin Receptor” (PSYLO PTY LTD, priority 2023, published 2025).
pEC50: −log10 of the molar value.

How the values were obtained:
Assay type in all cases: cell-based
[1] = target: T1, 5-HT2A receptor (Homo sapiens, UniProt P28223); assay: FLIPR Ca2+ flux functional assay, agonist activity at 5-HT2A; details: stably transfected HEK293 cells
T1 construct: host or cells: HEK293
Procedure: (§1) Functional assays 5-HT2A, 5-HT2B and 5-HT2C Receptors
(§2) Activity at 5-HT2A, 5-HT2B and 5-HT2C receptors was determined using a FLIPR Ca2+ flux assay at WuXi AppTec Co. Ltd. (Hong Kong) Discovery Biology Unit according to their standard protocols. Briefly, stably transfected cells expressing the receptor of interest (HEK293 for 5-HT2A and 5-HT2C; CHO-K1 for 5-HT2B) were grown and plated in a 384 well plate and incubated at 37° C. and 5% CO2 overnight. A 250 mM stock solution of probenecid in FLIPR calcium assay buffer (10 mL) was freshly prepared and combined with a fluorescent dye (Fluo-4 Direct) to give a final assay concentration of 2.5 mM. Reference compounds were 4-fold serially diluted and the screening compounds were 3-fold serially diluted in 100% DMSO for 10 points using Agilent Bravo, and 750 nL was added to a 384 well compound plate using Echo along with 30 μL assay buffer. The fluorescent dye was then added to the assay plate along with assay buffer to a final volume of 40 μL. The cell plate was incubated for 50 min at 37° C. and 5% CO2 and placed into the FLIPR Tetra along with the compound plate. 10 μL of references and compounds were then transferred from the compound plate into the cell plate and the fluorescent signal was read.

[2] = target: T2, 5-HT2C receptor (Homo sapiens, UniProt P28335); assay: FLIPR Ca2+ flux functional assay, agonist activity at 5-HT2C; details: stably transfected HEK293 cells
T2 construct: host or cells: HEK293
T2 sequence (P28335 33-458): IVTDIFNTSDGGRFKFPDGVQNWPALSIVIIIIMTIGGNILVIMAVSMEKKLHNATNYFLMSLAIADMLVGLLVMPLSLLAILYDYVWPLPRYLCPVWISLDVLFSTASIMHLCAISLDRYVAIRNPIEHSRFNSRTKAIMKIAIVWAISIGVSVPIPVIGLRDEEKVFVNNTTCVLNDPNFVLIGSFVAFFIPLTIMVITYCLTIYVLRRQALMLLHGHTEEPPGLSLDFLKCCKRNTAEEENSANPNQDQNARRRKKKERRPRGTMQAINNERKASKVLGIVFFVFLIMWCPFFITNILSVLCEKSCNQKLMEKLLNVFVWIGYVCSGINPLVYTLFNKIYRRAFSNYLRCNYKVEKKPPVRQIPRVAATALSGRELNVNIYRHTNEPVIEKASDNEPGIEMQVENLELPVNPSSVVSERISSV
Procedure: as §1, §2

[3] = target: T3, 5-HT2B receptor (Homo sapiens, UniProt P41595); assay: 5-HT2B activation in a similar assay at a single 10 μM concentration
T3 construct: host or cells: CHO-K1
T3 sequence (P41595 whole entry): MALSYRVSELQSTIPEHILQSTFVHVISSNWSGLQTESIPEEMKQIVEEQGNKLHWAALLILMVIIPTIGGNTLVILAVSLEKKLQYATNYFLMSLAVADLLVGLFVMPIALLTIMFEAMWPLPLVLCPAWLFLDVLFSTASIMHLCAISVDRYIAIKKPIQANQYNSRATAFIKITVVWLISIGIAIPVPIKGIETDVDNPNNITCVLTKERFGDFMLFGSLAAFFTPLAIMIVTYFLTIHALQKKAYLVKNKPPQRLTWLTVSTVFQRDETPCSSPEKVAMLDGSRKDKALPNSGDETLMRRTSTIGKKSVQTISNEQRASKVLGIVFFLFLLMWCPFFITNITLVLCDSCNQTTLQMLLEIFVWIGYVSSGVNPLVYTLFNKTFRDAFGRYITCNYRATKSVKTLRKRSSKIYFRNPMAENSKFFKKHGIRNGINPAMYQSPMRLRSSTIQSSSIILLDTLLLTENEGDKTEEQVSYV
Procedure: Activation data are provided in a similar assay tested at a single 10 μM concentration.

T1 sequence (P28223 whole entry): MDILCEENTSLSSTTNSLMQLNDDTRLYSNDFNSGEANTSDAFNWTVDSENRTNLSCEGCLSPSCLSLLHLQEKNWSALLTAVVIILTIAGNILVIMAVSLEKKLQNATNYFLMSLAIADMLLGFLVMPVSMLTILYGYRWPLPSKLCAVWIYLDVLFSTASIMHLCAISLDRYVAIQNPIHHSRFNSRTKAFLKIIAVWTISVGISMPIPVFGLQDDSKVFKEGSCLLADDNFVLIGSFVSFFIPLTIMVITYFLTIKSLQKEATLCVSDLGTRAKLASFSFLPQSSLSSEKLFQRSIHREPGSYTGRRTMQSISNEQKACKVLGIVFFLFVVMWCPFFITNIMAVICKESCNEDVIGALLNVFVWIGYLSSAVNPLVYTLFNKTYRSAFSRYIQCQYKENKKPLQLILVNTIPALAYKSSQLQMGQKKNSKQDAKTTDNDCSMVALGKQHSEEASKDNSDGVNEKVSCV

| SMILES | pEC50 [1] | Emax [1] | pEC50 [2] | Emax [2] | 5-HT2B % Activation @ 10 μM [3] |
| --- | --- | --- | --- | --- | --- |
| C[C@@H]1CCCN1CCc1c[nH]c2ncc(F)cc12 [Compound S50, (R)-5-fluoro-3-(2-(2-methylpyrrolidin-1-yl)ethyl)-1H-pyrrolo[2,3-b]pyridine] | 7.18 | 90% | 5.40 | 44% | 2% |
| C[C@H]1CCCN1CCc1c[nH]c2ncc(F)cc12 [Compound S51, (S)-5-fluoro-3-(2-(2-methylpyrrolidin-1-yl)ethyl)-1H-pyrrolo[2,3-b]pyridine] | 6.40 | 86% | < 5.00 | 2% | 0% |
| CCN(C)CCc1c[nH]c2ncc(Cl)cc12 [Compound S52, 2-(5-chloro-1H-pyrrolo[2,3-b]pyridin-3-yl)-N-ethyl-N-methylethan-1-amine] | 6.83 | 61% | 5.71 | 49% | 3% |
| CC(C)N(C)CCc1c[nH]c2ncc(Cl)cc12 [Compound S53, N-(2-(5-chloro-1H-pyrrolo[2,3-b]pyridin-3-yl)ethyl)-N-methylpropan-2-amine] | 6.94 | 84% | 5.59 | 71% | 26% |
| CCN(C)CCc1c[nH]c2ncc(Br)cc12 [Compound S54, 2-(5-bromo-1H-pyrrolo[2,3-b]pyridin-3-yl)-N-ethyl-N-methylethan-1-amine] | 6.65 | 69% | < 5.00 | 19% | 1% |
| CC(C)N(C)CCc1c[nH]c2ncc(Br)cc12 [Compound S55, N-(2-(5-bromo-1H-pyrrolo[2,3-b]pyridin-3-yl)ethyl)-N-methylpropan-2-amine] | 6.80 | 73% | 5.44 | 34% | 4% |
| CN(CCc1c[nH]c2ncc(Br)cc12)C1CC1 [Compound S56, N-(2-(5-bromo-1H-pyrrolo[2,3-b]pyridin-3-yl)ethyl)-N-methylcyclopropanamine] | 6.65 | 54% | 5.73 | 45% | 2% |
| Brc1cnc2[nH]cc(CCN3CCCC3)c2c1 [Compound S57, 5-bromo-3-(2-(pyrrolidin-1-yl)ethyl)-1H-pyrrolo[2,3-b]pyridine] | 6.05 | 86% | 5.46 | 62% | 12% |
| Brc1cnc2[nH]cc(CCN3CCC3)c2c1 [Compound S58, 3-(2-(azetidin-1-yl)ethyl)-5-bromo-1H-pyrrolo[2,3-b]pyridine] | 6.91 | 79% | 6.64 | 67% | 3% |
| CC1CCN1CCc1c[nH]c2ncc(Br)cc12 (stereo not shown) [Compound S59, 5-bromo-3-(2-(2-methylazetidin-1-yl)ethyl)-1H-pyrrolo[2,3-b]pyridine] | 6.39 | 69% | < 5.00 | 19% | 0% |
| Fc1ccccc1CNCCc1c[nH]c2ncc(Br)cc12 [Compound S60, 2-(5-bromo-1H-pyrrolo[2,3-b]pyridin-3-yl)-N-(2-fluorobenzyl)ethan-1-amine] | 6.55 | 66% | 5.75 | 63% | 0% |
| Fc1cccc(CNCCc2c[nH]c3ncc(Br)cc23)c1 [Compound S61, 2-(5-bromo-1H-pyrrolo[2,3-b]pyridin-3-yl)-N-(3-fluorobenzyl)ethan-1-amine] | 7.13 | 65% | 5.72 | 73% | 0% |
| COc1ccccc1CNCCc1c[nH]c2ncc(Br)cc12 [Compound S62, 2-(5-bromo-1H-pyrrolo[2,3-b]pyridin-3-yl)-N-(2-methoxybenzyl)ethan-1-amine] | 8.10 | 78% | 6.32 | 85% | 1% |
| COc1cccc(CNCCc2c[nH]c3ncc(Br)cc23)c1 [Compound S63, 2-(5-bromo-1H-pyrrolo[2,3-b]pyridin-3-yl)-N-(3-methoxybenzyl)ethan-1-amine] | 6.98 | 63% | 5.53 | 48% | 0% |
